Data reported in the supplement of paper PMC10627819.

How the values were obtained:
Experiment in all cases: fitness (endpoint OD595 vs no drug) (fraction); higher = more growth
B. subtilis 168 = test system: B. subtilis 168
Summary of the method: (§1)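 Fitness expresses the optical density reached at the stationary-phase transition as a fraction of the robust mean of no-drug control wells. It is capped at 1. Measurements were OD595 every 30 min for 14 h at 37 °C after inoculation of 384-well plates at OD595 0.01 (30 µl, or 55 µl for S. pneumoniae), minus the first reading.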

S. aureus DSM 20231 = test system: S. aureus DSM 20231
Summary of the method: as §1

S. aureus Newman = test system: S. aureus Newman
Summary of the method: as §1
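Further: OD595 on entry to stationary phase over no-drug wells; at most 1.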

N[C@@H]1CONC1=O [Cycloserine D] + Cc1cc(NS(=O)(=O)c2ccc(N)cc2)no1 [Sulfamethoxazol]
fitness, one replicate
Conditions | first compound 0.125 µg/mL | first compound 0.25 µg/mL | first compound 0.375 µg/mL | first compound 0.5 µg/mL | first compound 0.75 µg/mL | first compound 1.5 µg/mL
B. subtilis 168, partner 0.5 µg/mL | 0.939 | 0.993 | – | 0.977 | – | –
S. aureus Newman, partner 8 µg/mL | – | – | ≥ 1 | – | ≥ 1 | ≥ 1

fitness
Conditions | first compound 0.125 µg/mL | first compound 0.25 µg/mL | first compound 0.375 µg/mL | first compound 0.5 µg/mL | first compound 0.75 µg/mL | first compound 1.5 µg/mL
B. subtilis 168, partner 1 µg/mL | 0.941 | 0.933 | – | 0.868 | – | –
B. subtilis 168, partner 2 µg/mL | 0.869 | 0.896 | – | 0.929 | – | –
B. subtilis 168, partner 4 µg/mL | 0.951 | 0.931 | – | ≥ 1 | – | –
S. aureus DSM 20231, partner 1 µg/mL | – | – | ≥ 1 | – | ≥ 1 | 0.93
S. aureus DSM 20231, partner 2 µg/mL | – | – | ≥ 1 | – | 0.913 | 0.982
S. aureus DSM 20231, partner 4 µg/mL | – | – | ≥ 1 | – | 0.929 | ≥ 1
S. aureus Newman, partner 1 µg/mL | – | – | 0.997 | – | 0.979 | 0.949
S. aureus Newman, partner 2 µg/mL | – | – | ≥ 1 | – | ≥ 1 | ≥ 1
S. aureus Newman, partner 4 µg/mL | – | – | ≥ 1 | – | ≥ 1 | ≥ 1

N[C@@H]1CONC1=O [Cycloserine D] + Cc1ncc([N+](=O)[O-])n1CCO [Metronidazole]
fitness
Conditions | partner 0.625 µg/mL | partner 0.781 µg/mL | partner 1.25 µg/mL | partner 1.562 µg/mL | partner 2.5 µg/mL | partner 3.124 µg/mL
B. subtilis 168, first compound 0.125 µg/mL | 0.948 | – | 0.913 | – | 0.937 | –
B. subtilis 168, first compound 0.25 µg/mL | – | – | 0.841 | – | 0.868 | –
B. subtilis 168, first compound 0.5 µg/mL | 0.933 | – | 0.921 | – | 0.973 | –
S. aureus DSM 20231, first compound 0.375 µg/mL | ≥ 1 | – | ≥ 1 | – | ≥ 1 | –
S. aureus DSM 20231, first compound 0.75 µg/mL | ≥ 1 | – | ≥ 1 | – | ≥ 1 | –
S. aureus DSM 20231, first compound 1.5 µg/mL | ≥ 1 | – | ≥ 1 | – | ≥ 1 | –
S. aureus Newman, first compound 0.375 µg/mL | 0.969 | 0.959 | ≥ 1 | 0.976 | 0.97 | 0.985
S. aureus Newman, first compound 0.75 µg/mL | 0.929 | ≥ 1 | ≥ 1 | 0.972 | 0.961 | 0.988
S. aureus Newman, first compound 1.5 µg/mL | 0.912 | ≥ 1 | 0.964 | 0.974 | 0.972 | ≥ 1

N[C@@H]1CONC1=O [Cycloserine D] + Cn1nnc(-c2ccc(-c3ccc(N4C[C@H](CO)OC4=O)cc3F)cn2)n1 [Tedizolid]
fitness
Conditions | first compound 0.375 µg/mL | first compound 0.75 µg/mL | first compound 1.5 µg/mL
S. aureus DSM 20231, partner 0.0625 µg/mL | 0.95 | 0.942 | 0.923
S. aureus DSM 20231, partner 0.125 µg/mL | 0.738 | 0.802 | 0.827
S. aureus Newman, partner 0.0625 µg/mL | 0.956 | 0.938 | 0.99
S. aureus Newman, partner 0.125 µg/mL | 0.925 | 0.842 | 0.855
